IC50 and EC50 data for 9 compounds are collected here from patent publication US20210253598A1, “ARYL ANNULATED MACROCYCLIC INDOLE DERIVATIVES” (priority 2017, published 2021).

Series [1] has as its system SUDHL10. The experiment in a line: Induction of cytotoxicity in SUDHL10 cells, CellTiter-Glo (Assay 6). Format: cell-based. The procedure:
(§1) Induction of Cytotoxicity Upon Treatment of Cells with Selected Compounds
(§2) In principle, compounds that induce apoptosis will concomitantly induce cell cytotoxicity. Therefore, cytotoxicity assays were run in parallel in SUDHL5 and SUDHL10 cells.
(§3) As a control, medium without cells was also added to the plate. Cells were incubated in a humidified incubator at 37° C. overnight. […] Rim wells were excluded. The cells were incubated for 5 hours in a humidified incubator at 37° C. After this incubation, 30 μl of CellTiter-Glo® Luminescent Cell Viability reagent (Promega, G7573) was added to each well using the Multidrop Combi Reagent Dispenser, followed by 15 minutes incubation on a shaker at room temperature. Finally, luminescence was read at 0.1 ms, with a gain of 3000 using the PHERAstar FS microplate reader (BMG Labtech).

Series [2] has as its system SUDHL5. The experiment in a line: Induction of caspase-3/7 activity in SUDHL5 cells (Assay 4). It counts as cell-based. The following applies: SUDHL5, 3 hours treatment, Caspase-Glo 3/7; median; read-out: Caspase SUDHL5 [M] (median). As for the experimental part:
(§4) Induction of Caspase-3/7 Activity Upon Treatment of Cells with Selected Compounds
(§5) The BH3-domain of MCL-1 sequesters pro-apoptotic proteins, thereby inhibiting apoptosis. In contrast, MCL-1 inhibitors are expected to antagonize this effect leading to an increase in apoptosis, which can be determined by measuring the activity of caspase-3/7.
(§6) The activity of caspase-3/7 was determined in DLBCL (Diffuse large B-cell lymphoma) cell lines (SUDHL5 and SUDHL10) upon treatment with different compounds, using the Caspase-Glo® 3/7 reagent from Promega (G8092).
(§7) As a control, medium without cells was also added to the plate. Cells were incubated in a humidified incubator at 37° C. overnight.
(§8) Rim wells were excluded. The cells were incubated for 3 hours in a humidified incubator at 37° C. After this incubation, 30 μl of Caspase-Glo® 3/7 reagent (Promega G8092) was added to each well using the Multidrop Combi Reagent Dispenser, followed by 1 hour incubation at 37° C. Finally, luminescence was read at 0.1 ms, with a gain of 3000 using the PHERAstar FS microplate reader (BMG Labtech).
(§9) For the evaluation of the results, the background measured with “medium-only” was subtracted from all other values. Then, the values were normalized to DMSO-only treated cells (every value was divided by the mean of the DMSO control).

Another series has as its target MCL-1 (Homo sapiens, UniProt Q07820, K194A/K197A/R201A). The experiment in a line: Protein-protein interaction assay MCL-1/Noxa BH3 peptide, TR-FRET (MCL-1 assay, Assay 1). Format: binding. The note with it: MCL-1 Assay [M] (median), MBP-MCL-1 / Noxa BH3 peptide. As for the experimental part:
The dose-dependent inhibition by the compounds described in this invention of the interaction between MCL-1 and the BH3 domain of Noxa (both human) was determined using a steady state binding competition assay with time-resolved fluorescence energy transfer (TR-FRET) readout. For that purpose MCL-1 (amino acids 173-321, N-terminal fused to Maltose Binding Protein (MBP), SEQ ID 1) and a synthetic Noxa BH3-derived peptide of sequence Biotin-PEG2-PEG2-PAELEVE-Nva-[…]-amide (SEQ ID 2) served as protein receptor and tracer ligand respectively. The MBP-MCL-1 was purchased from Beryllium (Bedford, Mass., USA). The expression and purification of this protein construct has been described elsewhere (DOI:10.1371/journal.pone.0125010). The Noxa BH3-derived peptide can be obtained from e.g. Biosyntan (Berlin, Germany).
For that, 100-fold concentrated DMSO solutions were prepared by serial dilutions (1:3.4) of a 2 mM stock solution in a clear, 384-well microtiter plate (Greiner Bio-One, Frickenhausen, Germany). From there, 50 nl were transferred in a dark test plate (Greiner Bio-One, Frickenhausen, Germany). The assay was initiated by addition of 2 μl of a 2,5-fold concentrated MBP-MCL-1 solution (usually for a 1 nM end concentration in 5 μl reaction volume) in aqueous assay buffer [50 mM Tris/HCl pH 7, 100 mM sodium chloride (NaCl), 50 mM potassium fluoride (KF), 0.005% Tween-20, 2 mM DTT, 0.1% bovine gamma globulin (BGG)] to the compounds in the assay plate. This was followed by a 10-minute incubation step at 22° C. for pre-equilibration of the putative complex between MBP-MCL-1 and the compounds.
The mixture was incubated in the dark for one hour at 22° C. and then overnight at 4° C. The formation of MCL-1/Noxa complexes was determined by measuring the resonance energy transfer of the anti-MBP-Eu-cryptate antibody to the streptavidin-XL665 present in the reaction.
The resulting data (ratio) were normalized, taking 0% inhibition as the mean value of control measurements (usually 32 data points) where all reagents were included. In this case 50 nl DMSO were used instead of compounds. […] IC50 values were determined by regression analysis based on a 4 parameter equation (minimum, maximum, IC50, Hill; Y=Max+(Min−Max)/(1+(X/IC50)^Hill) using the Screener Software (Genedata).

In series [3] the test system is SUDHL10. The experiment in a line: Induction of caspase-3/7 activity in SUDHL10 cells (Assay 4). The note with it: SUDHL10, 3 hours treatment, Caspase-Glo 3/7, median, read-out: Caspase SUDHL10 [M] (median). It counts as cell-based. As for the experimental part:
as §4, §5, §6, §7, §8, §9

In series [4] the test system is SUDHL5. The experiment in a line: Induction of cytotoxicity in SUDHL5 cells, CellTiter-Glo (Assay 6). Format: cell-based. As for the experimental part: as §1, §2, §3
Where [5] appears, read: SUDHL10, 5 hours incubation, median, read-out: Cytotox SUDHL10 [M] (median).
Setting [6] is: SUDHL5, 5 hours incubation, median, read-out: Cytotox SUDHL5 [M] (median).

Counter-ions that a name gives are not always drawn. Like-named read-outs stand apart in the source and are kept apart here.

Sequence of MCL-1 (Q07820 173-321 K194A/K197A/R201A, looked up): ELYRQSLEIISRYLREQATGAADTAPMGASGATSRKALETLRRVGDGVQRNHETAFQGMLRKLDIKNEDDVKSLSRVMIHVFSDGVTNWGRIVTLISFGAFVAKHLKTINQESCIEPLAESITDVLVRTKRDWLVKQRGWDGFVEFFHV

Regarding `Cc1c2c(nn1C)CN(C(=O)CC1CCOCC1)Cc1ccccc1Cn1c(C(=O)O)c(CCCOc3cccc4ccccc34)c3cccc-2c31` (single isomer, unassigned; enantiomer 1) [Example 22, (−)-4,5-Dimethyl-17-[3-(naphthalen-1-yloxy)propyl]-8-(tetrahydro-2H-pyran-4-ylacetyl)-7,8,9,14-tetrahydro-5H-indolo[1,7-bc]pyrazolo[4,3-e][2,8]benzodiazacycloundecine-16-carboxylic Acid (Enantiomer 1)], the IC50 with SUDHL10 [1] (setting [5]) is over 3.3e-05 M; at MCL-1, 6.5e-07 M; in the series with SUDHL5 [4] (setting [6]), 1.7e-05 M. The results for the EC50 in the series on SUDHL5 [2] and in the series on SUDHL10 [3] were 1.4e-05 M and over 3.3e-05 M, respectively.

Take `Cc1c2c(nn1C)CN(C(=O)NCC1CCOCC1)Cc1ccccc1Cn1c(C(=O)O)c(CCCOc3cccc4ccccc34)c3cccc-2c31` (single isomer, unassigned; enantiomer 2) [Example 29, (−)-4,5-Dimethyl-17-[3-(naphthalen-1-yloxy)propyl]-8-[(tetrahydro-2H-pyran-4-ylmethyl)carbamoyl]-7,8,9,14-tetrahydro-5H-indolo[1,7-bc]pyrazolo[4,3-e][2,8]benzodiazacycloundecine-16-carboxylic Acid (Enantiomer 2)]: the IC50 turned out to be 2.3e-05 M with SUDHL10 [1] (setting [5]), 3e-08 M against MCL-1 and 1.4e-05 M in the series on SUDHL5 [4] (setting [6]). The values for the EC50 in the series on SUDHL5 [2] and in the series on SUDHL10 [3] were 1e-05 M and 2.3e-05 M, respectively.

`Cc1c2c(nn1C)CN(C(=O)CC1CCOCC1)Cc1ccccc1Cn1c(C(=O)O)c(CCCOc3cccc4ccccc34)c3cccc-2c31` (single isomer, unassigned; enantiomer 2) [Example 23, (+)-4,5-Dimethyl-17-[3-(naphthalen-1-yloxy)propyl]-8-(tetrahydro-2H-pyran-4-ylacetyl)-7,8,9,14-tetrahydro-5H-indolo[1,7-bc]pyrazolo[4,3-e][2,8]benzodiazacycloundecine-16-carboxylic Acid (Enantiomer 2)]: the IC50 in the series with SUDHL10 [1] (setting [5]) amounted to 1.1e-05 M; on MCL-1, 3.9e-08 M; with SUDHL5 [4] (setting [6]), 4.4e-06 M. The EC50 was 4.2e-06 M with SUDHL5 [2] and 1.2e-05 M in the series with SUDHL10 [3].

With `Cc1c2c(nn1C)COCc1ccccc1Cn1c(C(=O)O)c(CCCOc3cccc4ccccc34)c3ccc(Cl)c-2c31` (single isomer, unassigned; enantiomer 2) [Example 38, (+)-3-Chloro-4,5-dimethyl-17-[3-(naphthalen-1-yloxy)propyl]-5,7,9,14-tetrahydroindolo[7,1-fg]pyrazolo[3,4-d][2,8]benzoxazacycloundecine-16-carboxylic Acid (Enantiomer 2)], the IC50 amounted to 6.8e-06 M with SUDHL10 [1] (setting [5]), 7.1e-09 M at MCL-1 and 2.3e-06 M in the series with SUDHL5 [4] (setting [6]). In addition, the EC50 in the series on SUDHL5 [2] came out at 1.7e-06 M; in the series with SUDHL10 [3] it was 1.1e-05 M.

For `Cc1c2c(nn1C)CN(S(=O)(=O)c1ccc(N3CCOCC3)nc1)Cc1ccccc1Cn1c(C(=O)O)c(CCCOc3cccc4ccccc34)c3cccc-2c31` (single isomer, unassigned; enantiomer 1) [Example 18, (+)-4,5-Dimethyl-8-{[6-(morpholin-4-yl)pyridin-3-yl]sulfonyl}-17-[3-(naphthalen-1-yloxy)propyl]-7,8,9,14-tetrahydro-5H-indolo[1,7-bc]pyrazolo[4,3-e][2,8]benzodiazacycloundecine-16-carboxylic Acid (Enantiomer 1)], the IC50 was determined as 3.8e-06 M with SUDHL10 [1] (setting [5]), 2.9e-08 M against MCL-1 and 1.4e-06 M with SUDHL5 [4] (setting [6]). Also, the EC50 with SUDHL5 [2] was 9.2e-07 M; in the series with SUDHL10 [3], 5.2e-06 M.

On to `Cc1c2c(nn1C)CN(S(=O)(=O)c1ccc(N3CCOCC3)nc1)Cc1ccccc1Cn1c(C(=O)O)c(CCCOc3cccc4ccccc34)c3cccc-2c31` (single isomer, unassigned; enantiomer 2) [Example 19, (−)-4,5-Dimethyl-8-{[6-(morpholin-4-yl)pyridin-3-yl]sulfonyl}-17-[3-(naphthalen-1-yloxy)propyl]-7,8,9,14-tetrahydro-5H-indolo[1,7-bc]pyrazolo[4,3-e][2,8]benzodiazacycloundecine-16-carboxylic Acid (Enantiomer 2)], for which the IC50 in the series with SUDHL10 [1] (setting [5]) was over 3.3e-05 M; against MCL-1, 9.4e-07 M; in the series on SUDHL5 [4] (setting [6]), 2.3e-05 M. The results for the EC50 with SUDHL5 [2] and in the series with SUDHL10 [3] were 1.7e-05 M and over 3.3e-05 M, respectively.

In the case of `Cc1c2c(nn1C)CN(C(=O)NC1CCOCC1)Cc1ccccc1Cn1c(C(=O)O)c(CCCOc3cccc4ccccc34)c3cccc-2c31` (single isomer, unassigned; enantiomer 2) [Example 26, (−)-4,5-Dimethyl-17-[3-(naphthalen-1-yloxy)propyl]-8-(tetrahydro-2H-pyran-4-ylcarbamoyl)-7,8,9,14-tetrahydro-5H-indolo[1,7-bc]pyrazolo[4,3-e][2,8]benzodiazacycloundecine-16-carboxylic Acid (Enantiomer 2)], the figures for the IC50 in the series on SUDHL10 [1] (setting [5]), against MCL-1 and with SUDHL5 [4] (setting [6]) were over 3.3e-05 M, 3.8e-08 M and 1.6e-05 M, respectively. Further, the EC50 with SUDHL5 [2] is 1.8e-05 M; with SUDHL10 [3], over 3.3e-05 M.

Consider `Cc1c2c(nn1C)CNCc1ccccc1Cn1c(C(=O)O)c(CCCOc3cccc4ccccc34)c3cccc-2c31` (single isomer, unassigned; enantiomer 2) [Example 13, 4,5-Dimethyl-17-[3-(naphthalen-1-yloxy)propyl]-7,8,9,14-tetrahydro-5H-indolo[1,7-bc]pyrazolo-[4,3-e][2,8]benzodiazacycloundecine-16-carboxylic acid-Trifluoroacetic Acid Salt (Enantiomer 2)], for which the IC50 turned out to be 2.5e-05 M in the series on SUDHL10 [1] (read-out: Cytotox SUDHL10 [M] (median), SUDHL10, 5 hours incubation); 1.7e-07 M at MCL-1; 1.7e-05 M with SUDHL5 [4] (read-out: Cytotox SUDHL5 [M] (median), SUDHL5, 5 hours incubation). For the same compound, the EC50 is 1.4e-05 M in the series with SUDHL5 [2] and over 3.3e-05 M in the series on SUDHL10 [3].

For `Cc1c2c(nn1C)CN(C(=O)NCC1CCOCC1)Cc1ccccc1Cn1c(C(=O)O)c(CCCOc3cccc4ccccc34)c3cccc-2c31` (single isomer, unassigned; enantiomer 1) [Example 28, (+)-4,5-Dimethyl-17-[3-(naphthalen-1-yloxy)propyl]-8-[(tetrahydro-2H-pyran-4-ylmethyl)carbamoyl]-7,8,9,14-tetrahydro-5H-indolo[1,7-bc]pyrazolo[4,3-e][2,8]benzodiazacycloundecine-16-carboxylic Acid (Enantiomer 1)], the IC50 in the series on SUDHL10 [1] (Homo sapiens, SU-DHL10, 5 h, SUDHL10, 5 hours incubation, median, read-out: Cytotox SUDHL10 [M] (median)) is over 3.3e-05 M; against MCL-1, 2.8e-07 M; in the series on SUDHL5 [4] (setting [6]), over 3.3e-05 M. The EC50 is over 3.3e-05 M in the series on SUDHL5 [2] and over 3.3e-05 M in the series with SUDHL10 [3] (Homo sapiens, SU-DHL10, 3 h).
